For one data set, the target named is T1, NF-κB (p50) (Homo sapiens, UniProt P19838).
T1 sequence (P19838 1-433 limits assumed): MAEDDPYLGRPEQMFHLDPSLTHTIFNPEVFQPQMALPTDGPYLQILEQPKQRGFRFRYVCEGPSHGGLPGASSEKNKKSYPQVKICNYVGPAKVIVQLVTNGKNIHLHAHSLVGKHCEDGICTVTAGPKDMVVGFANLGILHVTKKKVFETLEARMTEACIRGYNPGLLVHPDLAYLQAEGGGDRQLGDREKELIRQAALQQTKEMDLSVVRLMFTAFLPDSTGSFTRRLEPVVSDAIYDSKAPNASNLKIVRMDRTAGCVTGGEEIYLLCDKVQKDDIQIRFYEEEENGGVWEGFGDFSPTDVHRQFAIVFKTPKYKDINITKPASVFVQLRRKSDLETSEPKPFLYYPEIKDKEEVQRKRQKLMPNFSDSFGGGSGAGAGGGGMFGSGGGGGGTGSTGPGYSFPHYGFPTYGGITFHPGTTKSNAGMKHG
As to the kind of experiment: DSE-FRET DNA-binding.

A further data set concerns the target T2, NF-κB (p52) (Homo sapiens, UniProt Q00653).
T2 sequence (Q00653 1-454 limits assumed): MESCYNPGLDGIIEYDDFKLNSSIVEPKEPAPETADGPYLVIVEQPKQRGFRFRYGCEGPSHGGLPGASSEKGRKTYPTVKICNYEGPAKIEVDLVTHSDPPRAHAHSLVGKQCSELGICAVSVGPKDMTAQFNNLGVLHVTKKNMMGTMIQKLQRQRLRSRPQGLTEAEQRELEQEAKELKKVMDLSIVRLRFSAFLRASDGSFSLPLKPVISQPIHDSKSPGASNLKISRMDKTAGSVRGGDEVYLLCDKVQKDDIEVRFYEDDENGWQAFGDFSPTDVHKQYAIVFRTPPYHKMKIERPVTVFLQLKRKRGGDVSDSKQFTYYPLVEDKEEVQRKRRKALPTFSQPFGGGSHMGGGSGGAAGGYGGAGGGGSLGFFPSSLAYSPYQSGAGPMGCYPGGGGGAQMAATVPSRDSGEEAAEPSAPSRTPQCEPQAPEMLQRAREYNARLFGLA
As to the kind of experiment: DSE-FRET DNA-binding.

The target of the next data set is GST-NF-kB p50 (human, UniProt P19838 1-433). In words: DSE-FRET.

In the case of `O=C(NC1=CC(=O)[C@H]2O[C@H]2[C@H]1O)c1ccccc1O` [(−)-DHMEQ], the IC50 at NF-κB (p50) came out at 8.8 µM; at NF-κB (p52), 62.5 µM.

Turning to `Cc1cc(-c2ccc(/N=N/c3ccc4c(S(=O)(=O)O)cc(S(=O)(=O)O)c(N)c4c3O)c(C)c2)ccc1/N=N/c1ccc2c(S(=O)(=O)O)cc(S(=O)(=O)O)c(N)c2c1O` [EB, Evans Blue], the values for the IC50 at NF-κB (p50) and on NF-κB (p52) were 12.9 µM and 12.8 µM, respectively.

B1: NF-D1 (NF-01F/NF-14D) (dsDNA)
DNA 1: AGTTGAGGGGACTTTCCCAGGCGACTCACTATAGGCGGTGTCTCGCTCGC
DNA 2: GGGAATGGTGTGGTGCCTATAGTGAGTCGCCTGGGAAAGTCCCCTCAACT
B1: the “apparent K (half saturation)” value with GST-NF-kB p50 is about 40 nM.

(Values after publication PMC4317927 (Cancer Science, 2014).)
